In patent publication US7326786B2, “Thiazolinone unsubstituted quinolines” (Hoffmann-La Roche Inc., priority 2004, dated 2008):
pKi: −log10 of the molar value.

molecular target: T1, recombinant human CDK1/Cyclin B complex (Homo sapiens, UniProt P06493); assay: CDK1/Cyclin B kinase assay (FlashPlate or HTRF); type: biochemical; details: Rb protein substrate, Ki=IC50/(1+[S]/Km)
T1 construct: made in house; host or cells: High Five insect cells (baculovirus) for CDK1/GST-cyclin B; E. coli M15 for the Rb substrate
Protocol: To determine inhibition of CDK1 activity, either FlashPlate™ (NEN™-Life Science Products) assay or HTRF Homogeneous Time Resolved Fluorescence assay was performed. Both types of kinase assays were carried out using recombinant human CDK1/Cyclin B complex. GST-cyclinB (GST-cycB) and CDK1 cDNA clones in baculovirus vectors were provided by Dr. W. Harper at the Baylor College of Medicine, Houston, Tex. Proteins were co-expressed in High Five™ insect cells and the complex was purified on glutathione Sepharose resin (Pharmacia, Piscataway, N.J.) as previously described (Harper, J. W. et al. Cell 1993, 75, 805-816). A 6×-Histidine tagged truncated form of retinoblastoma (Rb) protein (amino acid 386-928) was used as the substrate for the CDK1/Cyclin B assay (the expression plasmid was provided by Dr. Veronica Sullivan, Department of Molecular Virology, Roche Research Centre, Welwyn Garden City, United Kingdom). The Rb protein is a natural substrate for phosphorylation by CDK1 (see Herwig and Strauss Eur. J. Biochem. Vol. 246 (1997) pp. 581-601 and the references cited therein). The expression of the 62Kd protein was under the control of an IPTG inducible promoter in an M15 E. coli strain. Cells were lysed by sonication and purification was carried out by binding lysates at pH 8.0 to a Ni-chelated agarose column pretreated with 1 mM imidazole. The resin was then washed several times with incrementally decreasing pH buffers to pH 6.0, and eluted with 500 mM imidazole. Eluted protein was dialysed against 20 mM HEPES [4-(2-hydroxyethyl)-1-piperazineethanesulfonic acid, sodium salt] pH 7.5, 30% glycerol, 200 mM NaCl, and 1 mM DTT (dithiothreitol). Purified Rb fusion protein stocks were quantitated for protein concentration, aliquoted, and stored at −70° C.
For the FlashPlate kinase asasy, 96-well FlashPlates were coated with Rb protein at 10 μg/ml, using 100 μl per well. Plates were incubated at 4° C. overnight or at room temperature for 3 hours on a shaker. To control for nonspecific phosphorylation, one row of wells was coated with 100 μl/well coating buffer (20 mM HEPES, 0.2 M NaCl). Plates were then washed twice with wash buffer (0.01% Tween 20 in phosphate-buffered saline). Compounds to be tested (“test compounds”) were added to the wells at 5× final concentration. Reactions were initiated by immediate addition of 40 μl reaction mix (25 mM HEPES, 20 mM MgCl2, 0.002% Tween 20, 2 mM DTT, 1 μM ATP, 4 nM 33P-ATP) and a sufficient amount of enzyme to give counts that were at least 10-fold above background. Plates were incubated at room temperature on a shaker for 30 minutes. Plates were washed four times with the wash buffer, sealed, and counted on the TopCount scintillation counter (Packard Instrument Co., Downers Grove, Ill.]. The percent inhibition of Rb phosphorylation, which is a measure of the inhibition of CDK activity, was determined according to the following formula:
[formula] where “test compound” refers to the average counts per minute of the test duplicates, “nonspecific” refers to the average counts per minute when no CDK1/Cyclin B, etc., was added, and “total” refers to the average counts per minute when no compound was added. The IC50 value is the concentration of test compound that reduces by 50% the protein-kinase induced incorporation of the radiolabel under the test conditions described. The value of the inhibitor constant Ki is calculated by the following: Ki=IC50/(1+[S]/Km), where [S] is the ATP concentration and Km is Michaelis constant.
The Homogeneous Time Resolved Fluorescence (HTRF) kinase assay was carried out in 96-well polypropylene plates (BD Biosciences, Bedford, Mass.). Test compounds were first dissolved in DMSO, and then diluted in kinase assay buffer 1 (25 mM HEPES, pH7.0, 8 mM MgCl2, 1.5 mM DTT, and 162 μM ATP) with DMSO concentration at 15%. The CDK1/Cyclin B enzyme was diluted in kinase assay buffer 2 (25 mM HEPES, pH 7.0, 8 mM MgCl2, 0.003% Tween 20, 0.045% BSA, 1.5 mM DTT, and 0.338 μM Rb protein). […]

T1 sequence (P06493 whole entry): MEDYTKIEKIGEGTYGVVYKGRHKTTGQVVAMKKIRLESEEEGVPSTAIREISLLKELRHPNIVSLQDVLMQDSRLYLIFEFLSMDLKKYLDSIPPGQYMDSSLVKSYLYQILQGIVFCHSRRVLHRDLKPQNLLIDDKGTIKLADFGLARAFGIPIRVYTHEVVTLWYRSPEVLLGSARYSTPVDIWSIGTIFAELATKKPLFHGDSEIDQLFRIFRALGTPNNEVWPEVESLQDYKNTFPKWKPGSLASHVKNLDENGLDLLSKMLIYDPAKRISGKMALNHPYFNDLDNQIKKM
T1 sequence (P14635 whole entry partner): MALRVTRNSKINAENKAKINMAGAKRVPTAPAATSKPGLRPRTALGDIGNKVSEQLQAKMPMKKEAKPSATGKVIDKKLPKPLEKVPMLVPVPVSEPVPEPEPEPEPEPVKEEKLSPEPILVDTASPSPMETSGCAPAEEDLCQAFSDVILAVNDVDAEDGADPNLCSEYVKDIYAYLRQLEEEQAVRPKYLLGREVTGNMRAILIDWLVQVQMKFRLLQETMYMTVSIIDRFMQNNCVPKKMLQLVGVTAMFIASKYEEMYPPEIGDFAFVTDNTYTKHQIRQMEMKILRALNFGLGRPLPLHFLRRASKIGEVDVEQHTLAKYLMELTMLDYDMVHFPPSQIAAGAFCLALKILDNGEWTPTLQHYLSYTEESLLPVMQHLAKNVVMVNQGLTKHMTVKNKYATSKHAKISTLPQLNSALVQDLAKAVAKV

SMILES | pKi
COc1ccc(OC)c(CCNC2=NC(=O)/C(=C/c3ccc4ncccc4c3)S2)c1 [Example 5, 2-[2-(2,5-Dimethoxy-phenyl)-ethylamino]-5-[1-quinolin-6-yl-meth-(Z)-ylidene]-thiazol-4-one] | 6.08
O=C1N=C(NC(CO)c2cccs2)S/C1=C\c1ccc2ncccc2c1 (stereo not drawn) [Example 25, 2-(2-Hydroxy-1-thiophen-2-yl-ethylamino)-5-[1-quinolin-6-yl-meth-(Z)-ylidene]-thiazol-4-one] | 6.22
O=C1N=C(NCC(c2ccccc2)N2CCOCC2)S/C1=C\c1ccc2ncccc2c1 (stereo not drawn) [Example 35, 2-(2-Morpholin-4-yl-2-phenyl-ethylamino)-5-[1-quinolin-6-yl-meth-(Z)-ylidene]-thiazol-4-one] | 5.48

Next, values leading:

pKi | SMILES
6.83 | COc1ccccc1CNC1=NC(=O)/C(=C/c2ccc3ncccc3c2)S1 [Example 10, 2-(2-Methoxy-benzylamino)-5-[1-quinolin-6-yl-meth-(Z)-ylidene]-thiazol-4-one]
6.22 | O=C1N=C(N[C@@H](CO)Cc2ccccc2)S/C1=C\c1ccc2ncccc2c1 [Example 20, 2-((R)-1-Hydroxymethyl-2-phenyl-ethylamino)-5-[1-quinolin-6-yl-meth-(Z)-ylidene]-thiazol-4-one]
5.52 | O=C1N=C(N[C@@H]2c3ccccc3C[C@@H]2O)S/C1=C\c1ccc2ncccc2c1 [Example 30, 2-((1R,2S)-2-Hydroxy-indan-1-ylamino)-5-[1-quinolin-6-yl-meth-(Z)-ylidene]-thiazol-4-one]
